Assay results published in ChEMBL document CHEMBL1133877, “2-Amino-4,6-diarylpyridines as novel ligands for the estrogen receptor” (Bioorg Med Chem Lett, 2001).

Columns and labels:
[1] = target: T1, Estrogen receptor beta (Homo sapiens, UniProt Q92731)
[2] = target: T2, Estrogen receptor (Homo sapiens, UniProt P03372)
T2 sequence (P03372 whole entry): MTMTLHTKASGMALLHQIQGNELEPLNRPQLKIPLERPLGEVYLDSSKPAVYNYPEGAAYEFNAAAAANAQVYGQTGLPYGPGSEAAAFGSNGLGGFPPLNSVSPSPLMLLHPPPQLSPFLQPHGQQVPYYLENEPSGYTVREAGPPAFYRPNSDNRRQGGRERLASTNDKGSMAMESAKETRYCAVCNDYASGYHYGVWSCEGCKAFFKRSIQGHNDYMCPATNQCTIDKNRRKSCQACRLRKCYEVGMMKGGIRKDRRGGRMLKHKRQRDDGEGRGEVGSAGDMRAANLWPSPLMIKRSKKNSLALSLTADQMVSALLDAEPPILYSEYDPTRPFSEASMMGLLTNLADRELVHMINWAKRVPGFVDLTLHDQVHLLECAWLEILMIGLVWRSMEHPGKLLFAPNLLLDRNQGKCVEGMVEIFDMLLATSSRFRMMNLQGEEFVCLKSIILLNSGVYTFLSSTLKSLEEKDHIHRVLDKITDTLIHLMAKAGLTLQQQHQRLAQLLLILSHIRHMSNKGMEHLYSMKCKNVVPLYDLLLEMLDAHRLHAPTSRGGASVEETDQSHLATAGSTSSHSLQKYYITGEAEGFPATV

[3] = target: T2, Estrogen receptor; assay: Displacement of [3H]17-beta-estradiol from Estrogen receptor alpha of bacterial lysate by scintillation proximity assay (SPA) at 10e-5 M; Inactive
[4] = target: T1, Estrogen receptor beta; assay: Displacement of [3H]17-beta-estradiol from Estrogen receptor beta of bacterial lysate by scintillation proximity assay (SPA) at 10e-5 M; Inactive

T1 sequence (Q92731 whole entry): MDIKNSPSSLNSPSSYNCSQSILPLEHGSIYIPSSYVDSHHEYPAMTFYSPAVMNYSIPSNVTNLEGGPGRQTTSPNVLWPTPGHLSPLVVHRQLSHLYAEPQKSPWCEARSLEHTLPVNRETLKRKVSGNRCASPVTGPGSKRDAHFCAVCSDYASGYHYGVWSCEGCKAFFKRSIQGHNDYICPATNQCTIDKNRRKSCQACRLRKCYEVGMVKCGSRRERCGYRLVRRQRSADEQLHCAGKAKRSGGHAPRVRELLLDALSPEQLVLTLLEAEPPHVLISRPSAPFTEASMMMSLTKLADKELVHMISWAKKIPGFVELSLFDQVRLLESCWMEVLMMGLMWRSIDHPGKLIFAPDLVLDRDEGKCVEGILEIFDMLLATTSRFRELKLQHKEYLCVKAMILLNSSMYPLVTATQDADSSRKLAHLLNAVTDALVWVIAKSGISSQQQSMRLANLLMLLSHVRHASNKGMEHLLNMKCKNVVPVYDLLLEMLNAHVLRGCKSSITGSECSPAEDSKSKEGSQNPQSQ

SMILES	Ki [1] [nM]	Ki [2] [nM]	Ki [3]	Ki [4]
CCCN(Cc1ccccn1)c1cc(-c2ccccc2)cc(-c2ccc(O)c(C)c2)n1	330	70		
Cc1cc(-c2cc(-c3ccccc3)cc(N(C)Cc3ccccc3)n2)ccc1O	1120	380		
Cc1cc(-c2cc(-c3ccccc3)cc(N(C)CCN(C)C)n2)ccc1O			Not Active	Not Active
Cc1ccccc1-c1cc(-c2ccc(O)cc2)nc(N(C)CCc2ccccc2)c1	1100	650		
CN(CCc1ccccc1)c1cc(-c2ccccc2)cc(-c2ccc(O)cc2)n1	1050	490		
Cc1cc(-c2cc(-c3ccccc3)cc(N3CCCC3)n2)ccc1O			Not Active	Not Active
Cc1cc(-c2cc(-c3ccccc3)cc(N(C)CC(C)C)n2)ccc1O	660	210		
CCN(Cc1ccncc1)c1cc(-c2ccccc2)cc(-c2ccc(O)c(C)c2)n1	1000	830		
Cc1cc(-c2cc(-c3ccccc3)cc(N(C)CCc3ccccn3)n2)ccc1O	> 3000	1260		
CCOCCN(CCOCC)c1cc(-c2ccccc2)cc(-c2ccc(O)c(C)c2)n1	1170	2000		
CN(CCc1ccccc1)c1cc(-c2ccc(O)cc2)cc(-c2ccc(O)cc2)n1	> 3000	> 3000		
Cc1cc(-c2cc(-c3ccccc3)cc(N(CCc3ccccc3)Cc3ccccc3)n2)ccc1O	250	130		
CC(C)CN(C)c1cc(-c2ccccc2)cc(-c2ccc(O)cc2)n1	1260	620		
CCCCN(C)c1cc(-c2ccccc2)cc(-c2ccc(O)c(C)c2)n1	790	660		
Cc1cc(-c2cc(-c3ccccc3)cc(N(C)Cc3cccc4ccccc34)n2)ccc1O	1410	450		
Cc1cc(-c2cc(-c3ccccc3)cc(N(C)CCc3ccccc3)n2)ccc1O	680	160		
CCCN(Cc1ccccn1)c1cc(-c2ccccc2)cc(-c2ccc(O)cc2C)n1			Not Active	Not Active
Cc1cc(-c2cc(-c3ccccc3)cc(N3CCC(Cc4ccccc4)CC3)n2)ccc1O	110	20		
CCCN(Cc1ccccn1)c1cc(-c2ccccc2)cc(-c2ccc(O)cc2)n1	710	180		
